The values below come from patent publication US20190187129A1, “CANCER MODELING PLATFORMS AND METHODS OF USING THE SAME” (Wake Forest University Health Sciences, priority 2016, published 2019).

Entries after “also recorded” stand apart in the source; their conditions may differ.

By viability is commonly meant the share of living cells, or the viability signal relative to a control.

One test deals with SW480 cells. Kind of test: 2D drug screen, MTS assay. It is filed as cell-based. To be noted: Homo sapiens, read-out: relative cellular viability (MTS, relative to control). On the procedure: Cancer cells seeded directly into wells were given 4-5 hours to reattach to the bottom of the wells. After that time, the anticancer drug solutions were administered in place of the media (FIG. 6, panel A) and an MTS assay was carried out 2 days later to determine cell viability. […] At 100 μM concentrations of Regorafenib and Sorafenib, and 100 mM concentrations of 5-FU, cellular viability remained below 20% that of the control for all four of the colorectal cancer cell lines utilized. However, screening with Dabrafenib and Trametinib produced diverging results from the other three anticancer drugs at higher concentrations. […] When treated with 1 mM concentrations of 5-FU, relative cellular viability was approximately 39% for SW480 cells and remained between 10%-22% for the HCT116, HT29, and CACO2 cells. These values were considerably lower than the relative cellular viability values for the lowest concentrations of the other anticancer drugs.
Cell Seeding: The original 15 mL centrifuge tubes containing the 10 mL of DMEM-10, cells, and trypsin were placed into a centrifuge. The centrifugation setting was 1500 RPM and at maximal acceleration for 5 minutes. After that time, the media and trypsin mixture was aspirated from the tubes, leaving the cell pellets still intact. 5 mL of DMEM-10 was then pipetted into each of the tubes, resuspending the cells in the process. Calculated volumes of the 5 mL cell-media solution were determined to ensure that 25,000 cells of each of the four colorectal cancer cell lines were seeded directly into each of the wells of a polystyrene clear-bottom 96-well plate. 100 μL of DMEM-10 media was then pipetted directly into the wells. The 96-well plates were incubated at 37° C. and 5% CO2 for 5 hours to allow the cells to reattach themselves to the bottom of the wells until media was aspirated and anticancer drug solutions were added.
Addition of Anticancer Drugs for Screening: The anticolorectal cancer drugs used in this screening included 5-FU, Regorafenib, Sorafenib, Trametinib, and Dabrafenib (Sigma-Aldrich, Missouri, USA)). High concentration drug stock solutions were created with DMSO. Lower concentration drug solutions were created by mixing the anticancer drug stocks with DMEM-10 media. […] drug solutions were generated for 5-FU; 1 μM, 10 μM, and 100 μM drug solutions were generated for Regorafenib, Sorafenib, and Dabrafenib; and 1 nM, 10 nM, and 100 nM drug solutions were generated for Trametinib. Media was carefully aspirated from the wells and 200 μL of the various drug-media solutions were placed into the wells containing cells. Three duplicates were generated for each anticancer drug concentration with each of the different cell types to calculate averages and run statistics on the data generated. Well plates were then incubated at 37° C. and 5% CO2 for […].
Cell viability assay: Cell viability was determined 48 hours after exposure to the anticancer drug solutions. The viability of the cells was examined by the CellTiter 96® AQueous One Solution Cell Proliferation (MTS) assay (Promega, Wisconsin, USA). The anticancer drug-media solutions were aspirated from the wells and 200 μL of the MTS reagent was carefully pipetted into the wells. The incubation time for the cells with the MTS reagent was approximately 45 minutes. The cell viability assay was performed on another 96-well plate and the absorbance was quantified by the EnVision Multilabel Plate Reader (PerkinElmer, California, USA).
In general terms: Tetrazolium assays rely on reduction of a dye to a coloured formazan, in cell work by metabolically active cells.

In test [1] the test system is HCT116-CACO2 ringed constructs. The test can be described thus: Ringed organoid drug screening, live-dead stain. In kind it is cell-based. To be noted: for % dead: % live ratio: drug day 5, stain day 7; for cell type targeted in ringed construct (live-dead images): inner HCT116 versus outer CACO2, day 7. Here is the method: Polydimethylsiloxane, or PDMS, was again used to coat the bottom of the wells. HCT116 cells were embedded within hyaluronan hydrogel and constructs were created on the PDMS surface. CACO2 cells that were also embedded within hyaluronan gel were used to create the outer ring around the HCT116 inner-ring construct (FIG. 9, panel A).
A live-dead stain was carried out on the ringed-constructs on day 7 and imaged on an Axiovert microscope (FIG. 9, panel B). The imaging software, MATLAB, was used to generate a % dead: % live ratio (or % red (medium grey in black and white images): % green (light grey in black and white images)) for the ringed-constructs. The values were then graphed showing the ratios for each of the concentrations of Regorafenib and 5-FU and against the control, untreated ratio (FIG. 9, panel C). At 100 μM, Regorafenib and 5-FU both have % dead: % live ratios of 0.98. This means that approximately half of the HCT116 and CACO2 cells are alive and half have been targeted by the anticancer drugs. When analyzing the relative cellular viability when the 1 μM and 10 μM concentrations of Regorafenib and 5-FU were administered, the % dead: % live ratios are much greater for the 5-FU solutions than for the Regorafenib solutions. At 1 μM, the % dead: % live ratio is 0.95 for 5-FU as opposed to 0.48 for Regorafenib, and at 10 μM, the % dead: % live ratio is 0.78 for 5-FU as opposed to 0.08 for Regorafenib. The % dead: % live ratios for the three concentrations of Regorafenib and 5-FU were substantially higher than the control % dead: % live ratio value of only 0.03.
Hydrogel Components of the Ringed Organoid Constructs: The hyaluronic acid-based hydrogel used in making the ringed organoids was a mixture of four components: Heprasil, Gelin-S, and PEGDA 2-ARM Acrylate crosslinker (Extralink), and Alkyne-PEG-Alkyne 2-ARM crosslinker (ESI BIO, California, USA). These components were mixed in a 4:4:1:1 ratio by volume. 0.1% Irgacure photoinitiator was added to each of the four components prior to their mixture and the […] were placed in a 37° C. incubator for a ˜30 minutes to solubilize. HCT116 and CACO2 cells were isolated in the passaging method previously mentioned and PDMS was used to coat the bottom of the 96-well plates.
Forming Ringed-Organoid Constructs: The four components of the hydrogel were added to the 15 mL centrifuge tube containing the HCT116 cell pellet and the cells were resuspended within the mixture. 10 μL of the HCT116 containing hydrogel were placed in the center of the wells and left untouched with aluminum foil covering the 96-well plates for ˜35 minutes. During this time, the PEGDA 2-ARM Acrylate will crosslink the gel, while the UV-sensitive 2-ARM Alkyne-PEG-Alkyne will remain uncrosslinked.
While waiting for the PEGDA to crosslink, add the four hydrogel components to the 15 mL centrifuge tube containing the isolated CACO2 cells and resuspend the cells within the gel. Remove the aluminum foil wrapping on the 96-well plate and inspect the construct to see if they have solidified yet. If so, take 25 μL of the CACO2-embedded-hydrogel and carefully place in the area around the HCT116 construct. Use the pipette tip to physically move the CACO2 gel around the construct on all sides. Use UV light from BlueWave 200 spot light to crosslink both gels together to form a fused, ringed-construct. Add DMEM-10 media to fill up the wells.
Anticancer Drug Screening: On day 5, 1 μM, 10 μM, and 100 μM drug solutions of 5-FU were added to ringed constructs and 1 μM, 10 μM, and 100 μM drug solutions of Regorafenib were added to separate ringed constructs. Three duplicates were generated for each of the drug concentrations and a no-drug control was maintained as well.
Live-Dead Staining and Microscopy: On day 7, the ringed-constructs underwent a Live-Dead stain and the construct were imaged on an Axiovert 200M 487-1 microscope (Carl Zeiss AG, Oberkochen, Germany). […]

Take `O=c1[nH]cc(F)c(=O)[nH]1` [5-FU, 5-Fluorouracil]: in the test on SW480 cells (1 mM), the viability at 1000 µM is around 39%. The viability at 100000 µM with SW480 cells (100 mM) was below 20%. Also, the “% dead: % live ratio” value is recorded as 0.95 in test [1] (1 μM), 0.78 in test [1] (10 μM) and 0.98 in test [1] (100 μM). For the same compound, the “cell type targeted in ringed construct (live-dead images)” value in test [1] is “targeting both cell types to similar degrees; also recorded: universal cell death of both HCT116 and CACO2”.

On to `CNC(=O)c1cc(Oc2ccc(NC(=O)Nc3ccc(Cl)c(C(F)(F)F)c3)c(F)c2)ccn1` [Regorafenib], for which the viability at 100 µM in the test with SW480 cells (100 μM) was below 20%. Besides, the “% dead: % live ratio” value amounted to 0.48 in test [1] (1 μM), 0.08 in test [1] (10 μM) and 0.98 in test [1] (100 μM). In addition, the “cell type targeted in ringed construct (live-dead images)” value in test [1] is given as “inner HCT116 cells were affected by Regorafenib to a greater extent than the CACO2 cells; also recorded: targeted cell death of HCT116”.
